54 compounds from the SangsterLogP compilation can be followed below.

For orientation: logP means a log measure of how a compound divides between an organic and an aqueous phase. A low value points to lower lipophilicity. A word on the logD: it is the decadic logarithm of the distribution of all forms, ionised or not, between an organic phase and buffer at a given pH. Higher therefore signals a more lipophilic compound.

The first data set in a line: method code G, from Hansch, C., Leo, A., & Hoekman, D. (1995). Exploring QSAR: hydrophobic, electronic, and steric constants (Vol. 2). Washington, DC: American Chemical Society.
Details: not given
`CCC(=O)C(Cc1ccccc1)S(=O)(=O)c1ccccc1` (centres undefined) yielded a logP of 1.82.
Same read-out and setting: the figure for `CCC(=O)C(Cc1ccc(C)cc1)S(=O)(=O)c1ccc(C)cc1` (centres undefined) is 3.3; for `CCC(=O)C(Cc1ccc(C)cc1)S(=O)(=O)c1ccccc1` (centres undefined) it is 2.7; for `CCC(=O)C(Cc1ccc(Cl)cc1)S(=O)(=O)c1ccc(C)cc1` (centres undefined) it is 3.43.
The compound `CCC(=O)C(Cc1ccc(Cl)cc1)S(=O)(=O)c1ccccc1` (centres undefined) yielded a logP of 2.69.
Turning to `CCC(=O)C(Cc1ccccc1)S(=O)(=O)c1ccc(C)cc1` (centres undefined), the log partition coefficient (logP) came to 2.45.
On the same count and under the same terms, the figure for `CCC(=O)C(Cc1ccc(OC)cc1)S(=O)(=O)c1ccc(C)cc1` (centres undefined) is 2.47.

Another data set is described as follows: method code SF-HPLC, from Hansch, C., Leo, A., & Hoekman, D. (1995). Exploring QSAR: hydrophobic, electronic, and steric constants (Vol. 2). Washington, DC: American Chemical Society. The note with it: pH 7.4.
Take `COc1ccc2cc(C(C)C(=O)OC(O)C(=O)N(C)CCO)ccc2c1` (centres undefined): the logD worked out at 2.01.

Assay in another data set: not given
Details: not given
`c1ccc(Cn2cnnn2)cc1` had a log partition coefficient (logP) of 1.36.
Consider `CC(C)=CC1C(C(=O)OCc2ccc(C)cc2C)C1(C)C` (centres undefined), for which the lipophilicity (logP) came to 4.5.
`CCCN1CCCC1CNC(=O)c1cc(S(N)(=O)=O)ccc1OC` (centres undefined) came in with a lipophilicity (logP) of 2.06.
For `c1ccc(NCCCOc2cccc(CN3CCCCC3)c2)nc1`, the log partition coefficient (logP) was determined as 4.29.
In the case of `CCc1c(C)[nH]c2c1C(=O)C1CN(C)CCC1C2` (centres undefined), the lipophilicity (logP) was found to be 1.78.
The compound `OCCN1CCN(C2CC(c3ccc(F)cc3)c3ccccc32)CC1` (centres undefined) yielded a logP of 2.95.
`C1=Cc2ccc3c4c(ccc(c24)C1)-c1ccccc1-3`: the logP is 5.78.
The compound `CCN1CCCC1CNC(=O)c1cc(N(C)S(C)(=O)=O)ccc1OC` (centres undefined) came in with a logP of 2.29.
Turning to `OC1(c2ccc(Cl)cc2)CCN(CCCC2(c3ccc(F)cc3)OCCO2)CC1`, the logP was 3.84.
`CSc1ccc2c(c1)C(N1CCN(CCO)CC1)CC2c1ccc(F)cc1` (centres undefined): the log partition coefficient (logP) was determined as 3.8.
Same read-out and setting: the same measure for `CCN1CCCC1CNC(=O)c1cc(NS(N)(=O)=O)ccc1OC` (centres undefined): 2.02; for `c1ccc(Cn2ncnn2)cc1`: 1.03; for `N=C1C=CC(=C(c2ccc(N)cc2)c2ccc(N)cc2)C=C1`: -0.21.
For `Cc1ccc2c(c1)C(N1CCN(CCO)CC1)CC2c1ccc(F)cc1` (centres undefined), the lipophilicity (logP) amounted to 3.57.
Compound `OCCN1CCN(CCCC2c3ccc(F)cc3Sc3ccc(C(F)(F)F)cc32)CC1` (centres undefined) came in with a log partition coefficient (logP) of 4.47.
`CNc1nc(Cl)c(SC)c(N2CCN(C)CC2)n1` displayed a logP of 2.99.
Consider `CCN1CCC[C@H]1CNC(=O)c1cc(I)ccc1OC`, for which the log partition coefficient (logP) was 3.23.
Consider `COc1ccc(S(N)(=O)=O)cc1C(=O)NC1CC2CCCC1N2Cc1ccccc1` (centres undefined), for which the logP stood at 2.88.
Regarding `O=c1[nH]c2ccccc2n1C1CCN(CCOc2ccccc2)CC1`, the lipophilicity (logP) worked out at 4.18.
The compound `CCN1CCCC1CNC(=O)c1cc(N(C)S(C)(=O)=O)c(Cl)cc1OC` (centres undefined) yielded a log partition coefficient (logP) of 2.62.
The same measure, in the same setting: the same measure for `C#CC(C)(C)NS(=O)(=O)c1ccc(OC)c(C(=O)NCC2CCCN2CC)c1` (centres undefined): 2.8; for `CC(=O)c1c(C)n(C)c2ccccc12`: 2.03.
`O=C(O)Cc1nn(Cc2nc3cc(F)ccc3s2)c(=O)c2ccccc12` returned a lipophilicity (logP) of 1.86. This logP and that of the compound before are within 0.2 log units of each other.
With `FC(F)(F)C(=NOCC1OCCO1)c1ccc(Cl)cc1`, the logP stood at 3.9.
On the same count and under the same terms, the figure for `CCN1CCCC1CNC(=O)c1cc(NS(N)(=O)=O)c(Cl)cc1OC` (centres undefined) is 2.66.
As for `c1ccc(Cn2cccc2)cc1`, the log partition coefficient (logP) stood at 2.71.
As to `O=C1NC(=O)[C@@]2(CCOc3ccc(F)cc32)N1`, the logP worked out at 0.78.
`Cc1cc2c(s1)Nc1ccc(F)cc1N=C2N1CCN(C)CC1` yielded a lipophilicity (logP) of 2.98.
In turn, `OCCN1CCN(C2CC(c3ccc(F)cc3)c3ccc(F)cc32)CC1` (centres undefined) displayed a logP of 3.3.
As to `CC1(C)CN(CCN2CCN(c3cccc(Cl)c3)C2=O)C1`, the logP was found to be 3.91.
On the same count and under the same terms, the figure for `OCCC1CCN(CC/C=C2\c3ccc(F)cc3Sc3ccc(C(F)(F)F)cc32)CC1` is 4.09; for `O=C1NCN(c2ccccc2)C12CCN(CCCC(c1ccc(F)cc1)c1ccc(F)cc1)CC2` it is 5.86.

The nature of the next data set: method code SF-AS, from Hansch, C., Leo, A., & Hoekman, D. (1995). Exploring QSAR: hydrophobic, electronic, and steric constants (Vol. 2). Washington, DC: American Chemical Society.
Details: not given
As for `CC(=O)c1ccc2c(c1)OCCOCCOCCOCCOCCO2`, the logP is -0.05.
The compound `CC(C)(C)c1ccc2c(c1)OCCOCCOCCOCCOc1cc(C(C)(C)C)ccc1OCCOCCOCCOCCO2` had a lipophilicity (logP) of 3.32.
`CCc1cccc2c1OCCOCCOCCOCCOCCO2` showed a log partition coefficient (logP) of 0.98.
In the case of `c1ccc2c(c1)OCCOCCOc1ccccc1OCCO2`, the log partition coefficient (logP) turned out to be 2.21.

The data set is the same for the next values; noted with them: pH 2.1.
For `O=C(O)C[N+]1([O-])CCN(C(=O)Cn2c(=O)sc3ccc(Cl)cc32)CC1`, the logD came out at 0.21.

Still in this data set, the particulars now being: pH 6.4.
Compound `CC1=NN(CCOc2ccc3ccccc3c2)C(=O)C1` yielded a logD of 2.74.

The data set is the same for the next values; noted with them: pH 7.2.
`N#CC(C#N)=NNc1ccccc1Br` showed a logD of 3.11.
As to `N#CC(C#N)=NNc1ccccc1C(F)(F)F`, the logD was found to be 4.2.
Regarding `Cc1ccccc1NN=C(C#N)C#N`, the logD is 2.38.
With `Cc1ccc(NN=C(C#N)C#N)c([N+](=O)[O-])c1`, the log distribution coefficient (logD) turned out to be 2.5.
Regarding `N#CC(C#N)=NNc1cccc(Cl)c1Cl`, the logD turned out to be 3.85.

The data set is the same for the next values; noted with them: pH 7.4.
Regarding `O=C(Cn1c(=O)sc2ccc(Cl)cc21)N1CC[N+]([O-])(CCO)CC1`, the log distribution coefficient (logD) was 0.05.
As to `O=C(NP(=O)(N1CC1)N1CC1)c1ccccc1I`, the logD was found to be 1.05.
Still for that read-out and setting: the figure for `O=C(NP(=O)(N1CC1)N1CC1)c1ccc(Br)cc1` is 0.97.
